Among the test systems are OVCAR-8; EKVX; PC-3; HOP-62; MDA-MB-231; HCT-15; TK-10; MOLT-4; RXF 393; DU-145; HCT-116; UO-31; UACC-257; OVCAR-3; RPMI-8226; HOP-92; K562; Hs-578T; NCI-H226; SK-MEL-28.
Assay in all cases: inhibition of tumour cell growth, NCI panel, 48 h

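Five concentrations, 48 hours, 96-well plates. GI50 = concentration required for 50% inhibition of growth.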 The source made the active and inactive calls. No stated cut-off is given here; in the data, active = GI50 up to about 1.1 µM and inactive = higher. Starred links: 1 amine or outer side, 2 acyl side, 3 side chain; linkers in the order of their positions; H or OH if unused. Non-standard residues stand in square brackets, D forms with d. Residues, ends and D or L forms follow the SMILES beside them. X35 = C=CCC(O[*:1])C(=O)[*:2]; NMeV = CN[CH](C(=O)O)C(C)C; NMeA = CN[CH](C)C(=O)O; βAla = NCCC(=O)O Bounds are passed on as bounds.

Regarding `COC(=O)NCCc1n[nH]c2c1C(=O)C=C(Nc1ccccc1)C2=O`, the GI50 in the assay with OVCAR-8 is 17.9 µM (inactive); with EKVX, 27.3 µM (inactive); with PC-3 it was 30.3 µM (inactive); in the assay on HOP-62 it was 68.2 µM (inactive); with MDA-MB-231 it was 25.9 µM (inactive); in the assay on HCT-15, 22.4 µM. For the same molecule, the GI50 was > 100 µM (inactive) in the assay with TK-10; 19.7 µM (inactive) with MOLT-4; 41.2 µM (inactive) in the assay with RXF 393; 47.5 µM (inactive) in the assay on DU-145; 21.7 µM (inactive) in the assay on HCT-116; 35.3 µM (inactive) with UO-31. The GI50 with UACC-257 was 16.7 µM (inactive); with OVCAR-3 it was 3.72 µM (inactive); in the assay on RPMI-8226, 19.1 µM (inactive); in the assay with HOP-92 it was 27.7 µM (inactive); with K562, 28.2 µM (inactive); with Hs-578T, 36.7 µM (inactive).

In the case of `O=c1[nH]c2[nH]c(-c3ccc(Br)cc3)cc2c2ccccc12`, the GI50 is 23.3 µM (inactive) with OVCAR-8; 5.58 µM (inactive) with EKVX; > 100 µM (inactive) in the assay on PC-3; 22.1 µM (inactive) in the assay on HOP-62; 15 µM (inactive) in the assay with MDA-MB-231; > 100 µM with HCT-15. Further, the GI50 was 52 µM (inactive) with TK-10; 12 µM (inactive) in the assay on MOLT-4; 24.7 µM (inactive) in the assay on RXF 393; > 100 µM (inactive) with DU-145; 43.5 µM (inactive) with NCI-H226; 43.2 µM (inactive) in the assay on HCT-116. In addition, the GI50 with SK-MEL-28 was > 100 µM (inactive); in the assay with UO-31, > 100 µM (inactive); in the assay with UACC-257, > 100 µM (inactive); in the assay on OVCAR-3, > 100 µM (inactive); in the assay on RPMI-8226 it was 70.5 µM (inactive); in the assay with K562, 27.1 µM (inactive). In the assay with Hs-578T, the GI50 is 15.1 µM (inactive).

For `C=CCC1OC(=O)CCNC(=O)C(C)N(C)C(=O)C(C(C)C)N(C)C(=O)C(C(C)CC)NC(=O)C2CCCN2C1=O` (configuration not stated) (cyclo([X35]PI[NMeV][NMeA][βAla]); configuration not given here), the GI50 in the assay on OVCAR-8 is 7.89 µM (inactive); in the assay on EKVX it was 3.23 µM (inactive); with PC-3, 5.85 µM (inactive); with HOP-62 it was 10.2 µM (inactive); with MDA-MB-231 it was 1.62 µM (inactive); with HCT-15, 23.2 µM. Moreover, the GI50 in the assay on TK-10 is > 100 µM (inactive); in the assay on MOLT-4, 2.11 µM (inactive); in the assay on DU-145, 44.9 µM (inactive); in the assay on HCT-116 it was 3.68 µM (inactive); with SK-MEL-28 it was 42.7 µM (inactive); in the assay on UO-31 it was 22.8 µM (inactive). In addition, the GI50 with UACC-257 is 9.44 µM (inactive); in the assay with OVCAR-3, 2.16 µM (inactive); with RPMI-8226, 2.62 µM (inactive); with HOP-92, 21.7 µM (inactive); with Hs-578T, 91.6 µM (inactive).

As for `O=c1[nH]nc(Cc2ccc([N+](=O)[O-])cc2)n1CCO`, the GI50 with OVCAR-8 was > 100 µM (inactive); in the assay on EKVX it was > 100 µM (inactive); with PC-3, > 100 µM (inactive); with MDA-MB-231 it was > 100 µM (inactive); in the assay with HCT-15, > 100 µM; in the assay on TK-10, > 100 µM (inactive). The GI50 in the assay on DU-145, in the assay with NCI-H226, in the assay on HCT-116, in the assay on SK-MEL-28, in the assay on UO-31 and with UACC-257 was > 100 µM (inactive) each time. In addition, the GI50 with OVCAR-3, in the assay with RPMI-8226, in the assay on HOP-92, with K562 and in the assay with Hs-578T was > 100 µM (inactive) throughout.

For the molecule `CCc1n[nH]c(=O)n1N1C(=O)CCC1=O`, the GI50 is > 100 µM (inactive) with OVCAR-8; > 100 µM (inactive) in the assay on EKVX; > 100 µM (inactive) in the assay on PC-3; > 100 µM (inactive) in the assay with HOP-62; > 100 µM (inactive) with MDA-MB-231; > 100 µM in the assay with HCT-15. Further, the GI50 in the assay on TK-10, with MOLT-4, in the assay with RXF 393, in the assay with DU-145, in the assay on NCI-H226 and with HCT-116 was > 100 µM (inactive) throughout. For the same molecule, the GI50 in the assay on SK-MEL-28, with UO-31, in the assay with UACC-257, with OVCAR-3, in the assay on RPMI-8226 and with K562 was > 100 µM (inactive) each time. Besides, the GI50 with Hs-578T was > 100 µM (inactive).

On to `COC(=O)C1(C#N)C(C)(C)N=C(c2ccccc2)C12CCCCC2` (configuration not stated), for which the GI50 in the assay with OVCAR-8 is > 100 µM (inactive); with EKVX, > 100 µM (inactive); in the assay with PC-3, 58.7 µM (inactive); with HOP-62, > 100 µM (inactive); in the assay on MDA-MB-231 it was > 100 µM (inactive); in the assay on HCT-15 it was > 100 µM. Also, the GI50 in the assay with TK-10 is > 100 µM (inactive); with MOLT-4 it was 45.9 µM (inactive); in the assay on RXF 393, > 100 µM (inactive); in the assay on DU-145 it was > 100 µM (inactive); in the assay on HCT-116, > 100 µM (inactive); in the assay on SK-MEL-28, 82 µM (inactive). Further, the GI50 was 75.7 µM (inactive) in the assay on UO-31; > 100 µM (inactive) in the assay on UACC-257; > 100 µM (inactive) with OVCAR-3; 63.4 µM (inactive) in the assay with RPMI-8226; 53.2 µM (inactive) in the assay with HOP-92; 59.7 µM (inactive) with K562. For the same molecule, in the assay with Hs-578T, the GI50 was > 100 µM (inactive).

With `CC1CC(N)=Nc2ccccc2N1Cc1ccccc1` (configuration not stated), the GI50 is 14.6 µM (inactive) in the assay on OVCAR-8; 22.1 µM (inactive) in the assay with EKVX; 14.2 µM (inactive) in the assay on PC-3; 13 µM (inactive) in the assay with HOP-62; 14.4 µM (inactive) in the assay on MDA-MB-231; 15.8 µM in the assay with HCT-15. The GI50 with TK-10 was 15 µM (inactive); in the assay on MOLT-4, 3.49 µM (inactive); with RXF 393, 12 µM (inactive); in the assay on DU-145, 16.6 µM (inactive); with NCI-H226, 15.7 µM (inactive); in the assay with HCT-116, 29.3 µM (inactive). Also, the GI50 with SK-MEL-28 was 11.6 µM (inactive); with UO-31 it was 21.9 µM (inactive); in the assay with UACC-257, 12.9 µM (inactive); in the assay with OVCAR-3, 12.4 µM (inactive); in the assay on RPMI-8226, 5 µM (inactive); in the assay with K562, 4.98 µM (inactive). For the same molecule, in the assay with Hs-578T, the GI50 was 11.1 µM (inactive).

Take `C(=N\NC1=NCCN1)/c1ccc(-c2cn3cc(/C=N/NC4=NCCN4)ccc3n2)cc1`: the GI50 in the assay on OVCAR-8 was 37.5 µM (inactive); in the assay on EKVX, > 50.4 µM (inactive); in the assay with PC-3 it was 22.9 µM (inactive); with MDA-MB-231 it was 14.6 µM (inactive); in the assay on HCT-15 it was > 68.4 µM; in the assay on TK-10, 26.6 µM (inactive). Besides, the GI50 in the assay with MOLT-4 was 5.35 µM (inactive); in the assay on RXF 393, > 55.6 µM (inactive); in the assay on DU-145, 16.6 µM (inactive); in the assay on HCT-116, 10.4 µM (inactive); in the assay on UO-31, 46 µM (inactive); with UACC-257 it was 30.3 µM (inactive). The GI50 in the assay with OVCAR-3 was > 39.4 µM (inactive); with RPMI-8226, 16.6 µM (inactive); with HOP-92, 18.8 µM (inactive); in the assay with K562, 14.6 µM (inactive); in the assay on Hs-578T, > 87.3 µM (inactive).

In the case of `CC(=O)Oc1ccc(/C=C/C(=O)O[C@H]2CCCC[C@@H]2OC(=O)/C=C/c2ccc(OC(C)=O)c(OC(C)=O)c2)cc1OC(C)=O`, the GI50 in the assay on OVCAR-8 is 8.61 µM (inactive); in the assay on EKVX, 17.1 µM (inactive); in the assay on PC-3, 8.28 µM (inactive); in the assay with HOP-62 it was 7.38 µM (inactive); in the assay on MDA-MB-231, 17 µM (inactive); in the assay with HCT-15, 5.13 µM. For the same molecule, the GI50 is 6.93 µM (inactive) in the assay on TK-10; 2.64 µM (inactive) in the assay on MOLT-4; 11.1 µM (inactive) with RXF 393; 13.3 µM (inactive) in the assay on DU-145; 4.58 µM (inactive) in the assay with HCT-116; 12.8 µM (inactive) in the assay on SK-MEL-28. The GI50 with UO-31 was 3.54 µM (inactive); in the assay with UACC-257, 11.8 µM (inactive); with OVCAR-3, 4.74 µM (inactive); with RPMI-8226, 4.07 µM (inactive); in the assay on HOP-92 it was 4.62 µM (inactive); with K562, 5.75 µM (inactive). Further, the GI50 in the assay with Hs-578T was 6.21 µM (inactive).

Turning to `c1ccc2c(c1)Nc1c3ccccc3nc3cccc-2c13`, the GI50 in the assay with OVCAR-8 is 0.507 µM (active); in the assay with EKVX it was 1.55 µM (inactive); in the assay on PC-3, 0.968 µM (active); in the assay with HOP-62, 1.02 µM (active); with MDA-MB-231 it was 0.923 µM (active); in the assay on HCT-15, 0.632 µM. Further, the GI50 in the assay with TK-10 is 1.73 µM (inactive); in the assay with MOLT-4 it was 0.157 µM (active); in the assay on RXF 393, 1.51 µM (inactive); in the assay with DU-145 it was 1.48 µM (inactive); in the assay on NCI-H226 it was 2.01 µM (inactive); with HCT-116, 0.499 µM (active). The GI50 with SK-MEL-28 is 1.71 µM (inactive); in the assay on UO-31, 1.36 µM (inactive); in the assay on UACC-257, 1.73 µM (inactive); in the assay on OVCAR-3, 1.46 µM (inactive); in the assay with RPMI-8226, 0.587 µM (active); with K562, 0.386 µM (active). Further, the GI50 in the assay with Hs-578T is 1.73 µM (inactive).

For `CCc1n[nH]c(=O)n1/N=C/c1c(O)ccc2ccccc12`, the GI50 in the assay on OVCAR-8 was > 100 µM (inactive); with EKVX, > 100 µM (inactive); in the assay on PC-3, > 100 µM (inactive); with HOP-62 it was > 100 µM (inactive); in the assay on MDA-MB-231, > 100 µM (inactive); with HCT-15, > 100 µM. In addition, the GI50 in the assay with TK-10, in the assay with MOLT-4, with RXF 393, in the assay with DU-145, with HCT-116 and in the assay on SK-MEL-28 was > 100 µM (inactive) in each case. Besides, the GI50 with UO-31, in the assay on UACC-257, in the assay with OVCAR-3, with RPMI-8226, in the assay on HOP-92 and with K562 was > 100 µM (inactive) throughout. Further, the GI50 in the assay with Hs-578T was 2.06 µM (inactive).
